Assay: xn = mol fraction of the nth substance listed
Conditions: 101 kPa, Liquid, Vibrating tube method

CCCCn1cc[n+](C)c1.[Cl-] [1-butyl-3-methylimidazolium chloride] + OCCO
mass density [kg/m3]
Conditions | 298.15 K | 308.15 K | 318.15 K
x1 = 0.0132 | 1108.21 | 1101.08 | 1093.97
x1 = 0.0294 | 1106.1 | 1099.21 | 1092.21
x1 = 0.0484 | 1104.02 | 1097.19 | 1090.29
x1 = 0.1028 | 1098.95 | 1092.29 | 1085.61
x1 = 0.2101 | 1092.39 | 1085.44 | 1079.22
x1 = 0.3094 | 1088.58 | 1081.93 | 1075.58
x1 = 0.4202 | 1085.81 | 1079.23 | 1072.98
x1 = 0.4947 | 1084.46 | 1078.12 | 1072
x1 = 0.5992 | 1083.24 | 1077.18 | 1071.11
x1 = 0.7117 | 1082.47 | 1076.69 | 1070.76
x1 = 0.8143 | 1082.35 | 1076.51 | 1070.75
x1 = 0.9126 | 1082.27 | 1076.49 | 1070.88
x1 = 1 | 1082.01 | 1076.51 | 1071.04

CCCCn1cc[n+](C)c1.COS(=O)(=O)[O-] [1-butyl-3-methylimidazolium methyl sulfate] + OCCO
mass density [kg/m3]
Conditions | 298.15 K | 308.15 K | 318.15 K
x1 = 0.0052 | 1110.66 | 1103.5 | 1096.12
x1 = 0.0512 | 1119.06 | 1111.91 | 1104.2
x1 = 0.1106 | 1128.96 | 1121.84 | 1114.04
x1 = 0.2135 | 1145.36 | 1138.27 | 1130.75
x1 = 0.3018 | 1156.55 | 1149.5 | 1142.35
x1 = 0.4059 | 1167.63 | 1160.69 | 1153.59
x1 = 0.5066 | 1176.9 | 1170.01 | 1162.97
x1 = 0.6163 | 1185.67 | 1178.75 | 1171.77
x1 = 0.7 | 1191.66 | 1184.71 | 1177.89
x1 = 0.8408 | 1199.42 | 1192.62 | 1185.85
x1 = 0.9244 | 1202.97 | 1196.25 | 1189.52
x1 = 1 | 1205.84 | 1199.25 | 1192.7

CCCCCCCC[n+]1ccn(C)c1.[Cl-] [1-methyl-3-octylimidazolium chloride] + OCCO
mass density [kg/m3]
Conditions | 298.15 K | 308.15 K | 318.15 K
x1 = 0.0077 | 1106.07 | 1098.89 | 1091.83
x1 = 0.0589 | 1085.93 | 1078.94 | 1072.21
x1 = 0.119 | 1068.7 | 1061.98 | 1055.33
x1 = 0.2112 | 1050.79 | 1044.34 | 1037.95
x1 = 0.2985 | 1039.53 | 1033.27 | 1026.92
x1 = 0.4021 | 1030.4 | 1024.26 | 1017.91
x1 = 0.5118 | 1023.63 | 1017.52 | 1011.2
x1 = 0.6041 | 1019.49 | 1013.41 | 1007.18
x1 = 0.6999 | 1016.21 | 1010.14 | 1003.94
x1 = 0.7837 | 1013.92 | 1007.87 | 1001.74
x1 = 0.8328 | 1012.75 | 1006.75 | 1000.65
x1 = 0.9583 | 1010.27 | 1004.34 | 998.43
x1 = 1 | 1009.56 | 1003.74 | 997.92

Reference: the NIST ThermoML archive (doi:10.1016/j.jct.2011.08.008)
